Test results taken from patent US20250188043A1 (ReproNovo SA, priority 2023, published 2025).
Converted amounts (≈) assume the structure as drawn. Each block holds one molecule with its values, some of them ahead of it.

Columns and labels:
[1] = Stability program: degradation product formation and appearance; type: physicochemical; conditions: for DSC onset after stress / DSC ΔH after stress: Bulk (DSC)
Text: The mixtures of excipients used for this study are as follows: mixture 1 (maltodextrin, microcrystalline cellulose, sodium carboxymethylcellulose, Aerosil 200, Cutina HR; 64:29:5:0.5:1.5 ratio), mixture 2 (microcrystalline cellulose, spray dried lactose, sodium carboxylmethyl starch, Aerosil 200, magnesium stearate; 20:73.5:5:0.5:1 ratio), and mixture 3 (microcrystalline cellulose, mannitol, crospovidone, magnesium stearate; 15:79.5:4:1.5 ratio). The buffered solutions are aqueous.

[2] = Excretion/elimination of 14C-labeled leflutrozole after oral dosing; type: in vivo; conditions: female rats
CYP3A4/5 = assay: CYP inhibition, pooled human liver microsomes, probe substrates; type: in vitro ADME; conditions: up to 100 μM
[3] = Cellular transport by Caco-2 assay; type: in vitro ADME, humans; conditions: human
Text: (§1) The ratio of B-A/A-B is 0.43.

Caco-2 cell model = assay: Cellular transport by Caco-2 assay; type: in vitro ADME, humans
Text: as §1

[4] = system: obese and overweight men with hypogonadism and low total motile sperm count; assay: Extension of treatment to 48 total weeks; type: in vivo, human; conditions: for serum testosterone change from baseline / serum testosterone level: 48-week period
[5] = Dynamic vapor sorption (DVS); type: physicochemical
Method: Crystalline Form A leflutrozole was determined to be non-hygroscopic.

[6] = Intrinsic dissolution rate; type: physicochemical; conditions: for Intrinsic DR value: 37° C., 50 rpm, 720 min
Method: The intrinsic dissolution rate is very low for Form A of leflutrozole, even in the presence of sodium dodecyl sulfate (SDS). The rate was determined in 0.1 N hydrochloric acid (HCl) and 0.001 N HCl.

Thermodynamic solubility = type: physicochemical; conditions: thermodynamic from solid
[7] = Long term storage stability of crystalline Form A leflutrozole; type: physicochemical
Method: The test for determination of the amount of related substance impurities uses reverse phase HPLC analysis with UV detection (230 nm). The solvents are acetonitrile/water/diammonium hydrogen phosphate buffer/O-phosphirc acid 85%. The column is Macherey Nagel, Nucleosil 100 C18HD (length=150 mm, internal diameter 3.0 mm) or equivalent L1 USP HPLC Columns.
Stability data under accelerated conditions are for up to 6 months at 40° C./75% RH and up to 3 months at 50° C. […].
Packaging A: Double low density polyethylene bags in fiber drugms; water permeation <14.0 mg/day/L. Packaging D: Brown glass bottles type C sealed in triple laminated foil bags or quadruple laminated foil bags of type B; water permeation <0.5 mg/day/L. Packaging H: Double polythene bags, sealed, in 400 mL mini-metallic drugs; water permeation 5 mg/day/L. Packaging J: HDPE bottles from Nalgene (30 mL) with polypropylene screw caps and sealed in alubags of type B. Packaging K: Polyethylene bag containing the drug inside quadruple laminated foil bags; water permeation <0.5 mg/day/L.

[8] = 2% (or 5%) solution or suspension, 1 day, room temperature, HPMC Cellulose 4000 0.5%
[9] = Solid-state, 1 week, 50° C., 75% RH, 1% in mixture 1
[10] = Solid-state, 1 week, 50° C., 75% RH, 1% in mixture 2
[11] = Solid-state, 1 week, 50° C., 75% RH, 1% in mixture 3
[12] = Solid-state, 1 week, 50° C., tight container, 1% in mixture 1
[13] = Solid-state, 1 week, 50° C., tight container, 1% in mixture 2
[14] = Solid-state, 1 week, 50° C., tight container, 1% in mixture 3
[15] = Solid-state, 1 week, 80° C., 75% RH
[16] = Solid-state, 1 week, 80° C., 75% RH, Bulk (HPLC)
[17] = Solid-state, 1 week, 80° C., tight container
[18] = Solid-state, 1 week, 80° C., tight container, Bulk (HPLC)
[19] = Xenon light (approx. 1200 kLuxh)
[20] = Xenon light (approx. 1200 kLuxh), Bulk (HPLC)
[21] = 36 months, 25° C., double polyethylene liner and black polyethylene keg
[22] = more than 36 months at room temperature

impurities formed ([1]; mixtures of 1% leflutrozole with various excipients, 1 week, 50° C. and 75% relative humidity): at most 0.5%
predominant mechanism of elimination [2]: metabolism
unchanged leflutrozole excreted via urine ([2]; oral dosing): 9%
half-life ([2]; rat, plasma, oral): 78 h
IC50 (CYP3A4/5): > 50 µM
Papp A→B ([3]; read-out: apparent permeability, apical to basolateral): 545 nm/s
Papp B→A ([3]; read-out: apparent permeability, basolateral to apical): 232 nm/s
apparent permeability (in words) (Caco-2 cell model): very high apparent permeability
bone specific alkaline phosphatase ([4]; 0.1 mg treatment arm only): significant increase
change in BMD for the hip or femoral neck ([4]; week 48): no significant change
percentage decrease of lumbar BMD (DEXA) ([4]; week 48, any treatment group): ≥ −3%
Compound: N#Cc1ccc(C(F)(c2ccc(C#N)cc2)n2cncn2)cc1 [leflutrozole, 4-[(4-cyanophenyl)-fluoro-(1,2,4-triazol-1-yl)methyl]benzonitrile]
contribution of efflux transporters such as P-glycoprotein (Caco-2 cell model): no detectable contribution of efflux transporters
serum testosterone change from baseline ([4]; 0.1 mg): 243.0 ng/dL
serum testosterone level ([4]; 0.1 mg): 494.9 ng/dL
serum testosterone change from baseline ([4]; 0.3 mg): 290.6 ng/dL
serum testosterone level ([4]; 0.3 mg): 549.7 ng/dL
serum testosterone change from baseline ([4]; 1.0 mg): 376.2 ng/dL
serum testosterone level ([4]; 1.0 mg): 595.1 ng/dL
bone turnover markers (type I collagen C-telopeptides, procollagen-1 N-terminal propeptide, osteocalcin) ([4]; by week 48): increases in all leflutrozole treatment groups
clinical meaning of reductions in BMD of the lumbar spine ([4]; week 48): did not indicate clinically meaningful osteopenia or osteoporosis

CL (appearance, color) ([1]; 0.1% solution or suspension, 1 week, 80° C., Ethanol): No change
CL (appearance, color) ([1]; 0.1% solution or suspension, 1 week, 80° C., Methanol): No change
CL (appearance, color) ([1]; 0.1% solution or suspension, 1 week, 80° C., Water): No change, suspension formed
CL (appearance, color) ([1]; 0.1% solution or suspension, 1 week, 80° C., pH 1): No change, suspension formed
CL (appearance, color) ([1]; 0.1% solution or suspension, 1 week, 80° C., pH 3): No change, suspension formed
form change on storage ([1]; 1 week at 80° C. and 75% relative humidity): no detectable form change
CL (appearance, color) ([1]; 2% (or 5%) solution or suspension, 1 day, room temperature, 0.5% CMC): suspension formed
CL (appearance, color) [1, 8]: suspension formed
DP (degradation product) [1, 8]: 0.0%
CL (appearance, color) [1, 9]: No change
DP (degradation product) [1, 9]: 0.5%
CL (appearance, color) [1, 10]: No change
DP (degradation product) [1, 10]: 0.1%
CL (appearance, color) [1, 11]: No change
DP (degradation product) [1, 11]: 0.4%
CL (appearance, color) [1, 12]: No change
DP (degradation product) [1, 12]: 0.0%
CL (appearance, color) [1, 13]: No change
DP (degradation product) [1, 13]: 0.0%
CL (appearance, color) [1, 14]: No change
DP (degradation product) [1, 14]: 0.1%
DSC onset after stress [1, 15]: 168 °C onset;
DSC ΔH after stress [1, 15]: ΔH = 110.3 J/g
CL (appearance, color) [1, 16]: No change
DP (degradation product) [1, 16]: 0.0%
DSC onset after stress [1, 17]: 168 °C onset;
DSC ΔH after stress [1, 17]: ΔH = 114 J/g
CL (appearance, color) [1, 18]: No change
DP (degradation product) [1, 18]: 0.0%
DSC onset after stress [1, 19]: 169 °C onset;
DSC ΔH after stress [1, 19]: ΔH = 112.6 J/g
CL (appearance, color) [1, 20]: No change
DP (degradation product) [1, 20]: 0.0%
degradation on exposure to xenon lamp (in words) ([1]; xenon lamp): does not degrade
hygroscopicity [5]: non-hygroscopic
maximum water uptake (DVS) ([5]; 25° C., up to 95% relative humidity): < 0.2%
Intrinsic DR value ([6]; HCl 0.001N + 1% SDS): 0.0167 mg/min/cm^2
Intrinsic DR value ([6]; HCl 0.1N + 1% SDS): 0.0162 mg/min/cm^2
intrinsic dissolution rate (in words) ([6]; even in the presence of sodium dodecyl sulfate): very low
solubility thermodynamic (Thermodynamic solubility; 0.05 M potassium biphthalate buffer, aqueous buffer, 0.05M buffer pH 3 - Potassium Biphthalate): < 0.03 mg/mL
solubility thermodynamic (Thermodynamic solubility; 0.05 M potassium chloride buffer, aqueous buffer, 0.05M buffer pH 1 - Potassium Chloride): < 0.03 mg/mL
solubility thermodynamic (Thermodynamic solubility; 0.05 M potassium phosphate buffer, aqueous buffer, 0.05M buffer pH 6.86 - Potassium Phosphate): < 0.03 mg/mL
solubility thermodynamic (Thermodynamic solubility; 0.05 M sodium acetate buffer, aqueous buffer, 0.05M buffer pH 4.63 - Sodium Acetate): < 0.03 mg/mL
solubility thermodynamic (Thermodynamic solubility; 1% Cremophor EL in water, aqueous with cosolvent or surfactant or cyclodextrin): < 0.03 mg/mL
solubility thermodynamic (Thermodynamic solubility; 1% Tween 80 in water, aqueous with cosolvent or surfactant or cyclodextrin): < 0.03 mg/mL
solubility thermodynamic (Thermodynamic solubility; 1% sodium dioctyl sulfosuccinate in water, aqueous with cosolvent or surfactant or cyclodextrin): 0.17 mg/mL (≈ 561 µM)
solubility thermodynamic (Thermodynamic solubility; 1% sodium lauryl sulfate in water, aqueous with cosolvent or surfactant or cyclodextrin): 0.47 mg/mL (≈ 1550 µM)
solubility thermodynamic (Thermodynamic solubility; 10% Cremophor EL in water, aqueous with cosolvent or surfactant or cyclodextrin): 0.19 mg/mL (≈ 626 µM)
solubility thermodynamic (Thermodynamic solubility; 10% PEG400 in water, aqueous with cosolvent or surfactant or cyclodextrin): < 0.03 mg/mL
solubility thermodynamic (Thermodynamic solubility; 10% PG in water, aqueous with cosolvent or surfactant or cyclodextrin): < 0.03 mg/mL
solubility thermodynamic (Thermodynamic solubility; 10% ethanol in water, aqueous with cosolvent or surfactant or cyclodextrin): < 0.03 mg/mL
solubility thermodynamic (Thermodynamic solubility; 20% hydroxypropyl β-cyclodextrin in water, aqueous with cosolvent or surfactant or cyclodextrin): 0.87 mg/mL (≈ 2870 µM)
solubility thermodynamic (Thermodynamic solubility; 20% sulfobutyl ether β-cyclodextrin (Captisol) in water, aqueous with cosolvent or surfactant or cyclodextrin): 1.05 mg/mL (≈ 3460 µM)
solubility thermodynamic (Thermodynamic solubility; Cremophor EL, organic solvent or mixture): 0.28 mg/mL (≈ 923 µM)
solubility thermodynamic (Thermodynamic solubility; FaSSIF): < 0.03 mg/mL
solubility thermodynamic (Thermodynamic solubility; FeSSIF): < 0.03 mg/mL
solubility thermodynamic (Thermodynamic solubility; Miglyol, oil or lipid): 0.72 mg/mL (≈ 2370 µM)
solubility thermodynamic (Thermodynamic solubility; SGF, simulated gastric fluid): < 0.03 mg/mL
solubility thermodynamic (Thermodynamic solubility; aqueous buffer, 0.05M buffer pH 7.4 - Potassium Phosphate): < 0.03 mg/mL
solubility thermodynamic (Thermodynamic solubility; aqueous buffer, 0.05M buffer pH 9 - Boric Acid): < 0.03 mg/mL
solubility thermodynamic (Thermodynamic solubility; aqueous buffer, pH 12 - 0.1N Sodium Hydroxide): < 0.03 mg/mL
solubility thermodynamic (Thermodynamic solubility; ethanol, organic solvent or mixture): 3.84 mg/mL (≈ 12700 µM)
solubility thermodynamic (Thermodynamic solubility; polyethylene glycol 400, organic solvent or mixture): 6.23 mg/mL (≈ 20500 µM)
solubility thermodynamic (Thermodynamic solubility; propylene glycol, organic solvent or mixture): 2.27 mg/mL (≈ 7480 µM)
solubility thermodynamic (Thermodynamic solubility; water): < 0.03 mg/mL
Combined related substance impurities ([7]; 5° C. ± 3° C. in packaging D, Initial): 0.60%
Combined related substance impurities ([7]; 25° C./60% RH in packaging K, 3 months): 0.60%
Combined related substance impurities ([7]; 25° C./60% RH in packaging K, Initial): 0.60%
impurity Q2 (substance of unknown structure) [7, 21]: 0.11 % w/w
impurity compound of formula (III) [7, 21]: 0.14 % w/w
Combined related substance impurities ([7]; 40° C./75% RH in packaging A, 3 months): 0.60%
Combined related substance impurities ([7]; 40° C./75% RH in packaging A, Initial): 0.60%
Combined related substance impurities ([7]; 40° C./75% RH in packaging D, Initial): 0.60%
Combined related substance impurities ([7]; 40° C./75% RH in packaging K, 6 months): 0.60%
Combined related substance impurities ([7]; 40° C./75% RH in packaging K, Initial): 0.60%
Combined related substance impurities ([7]; 50° C./≤30% RH in packaging D, Initial): 0.60%
Combined related substance impurities ([7]; 50° C./≤30% RH in packaging K, Initial): 0.60%
stability of drug substance on storage (in words) ([7]; long term and accelerated storage conditions): very stable under all storage conditions
individual impurity developed [7, 22]: ≤ 0.8 % HPLC peak area
total amount of impurities [7, 22]: ≤ 2.0 % of the total HPLC peak area
time stable at room temperature ([7]; room temperature): more than 36 months
Combined related substance impurities ([7]; −20° C. ± 5° C./ambient RH in packaging D, Initial): 0.60%
Combined related substance impurities ([7]; −20° C. ± 5° C./ambient RH in packaging K, Initial): 0.60%
Compound: N#Cc1ccc(C(F)(c2ccc(C#N)cc2)n2cncn2)cc1 [Form A leflutrozole, 4-[(4-cyanophenyl)-fluoro-(1,2,4-triazol-1-yl)methyl]benzonitrile]
